Source: PubChem BioAssay (NCI)
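Test compounds were applied to cells in 96-well plates for 48 hours at 5 doses. The concentration for full growth arrest is given as TGI.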

Tests used:
Experiment in all cases: inhibition of tumour cell growth, NCI panel, 48 h
[1] = system: CCRF-CEM leukemia
[2] = system: EKVX NSCLC
[3] = system: HCT-15 colon
[4] = system: IGROV1 ovarian
[5] = system: MDA-MB-435
[6] = system: MDA-N
[7] = system: NCI-H226 lung
[8] = system: NCI-H460 lung
[9] = system: OVCAR-3 ovarian
[10] = system: OVCAR-5 ovarian
[11] = system: SR leukemia

| SMILES | TGI [1] | TGI [2] | TGI [3] | TGI [4] | TGI [5] | TGI [6] | TGI [7] | TGI [8] | TGI [9] | TGI [10] | TGI [11] |
| --- | --- | --- | --- | --- | --- | --- | --- | --- | --- | --- | --- |
| Nc1nc2c(C(=O)O)c3ccc([N+](=O)[O-])cc3c(=O)n2c2ccccc12 | > 100 µM | > 100 µM | 71.8 µM | 86.6 µM | > 100 µM | > 100 µM | 53.9 µM | > 100 µM | 57 µM | > 100 µM | > 100 µM |
| CC1(C)CC(=O)c2c(nc3c4c([nH]c(-c5ccc(Br)cc5)c24)CC(C)(C)C3)C1 | > 100 µM | > 100 µM | > 100 µM | – | > 100 µM | > 100 µM | > 100 µM | > 100 µM | > 100 µM | > 100 µM | 59.1 µM |
| Nc1ccc(Nc2cc(=O)[nH]c(=O)[nH]2)cc1Cl | > 100 µM | – | > 100 µM | – | > 100 µM | > 100 µM | > 100 µM | > 100 µM | > 100 µM | > 100 µM | > 100 µM |
| CN(C)CCc1c2c(nc3ccccc13)C(=O)c1cccnc1C2=O | 4.85 µM | 5.73 µM | 0.927 µM | 2.14 µM | 1.15 µM | 1.38 µM | 0.473 µM | 0.5 µM | 1.34 µM | 3.44 µM | 0.144 µM |
| O=[N+]([O-])c1ccc(C(O)(C#CCN2CCCC2)c2ccccc2)cc1 (centres undefined) | 57.5 µM | > 100 µM | > 100 µM | > 100 µM | 80.1 µM | > 100 µM | > 100 µM | > 100 µM | > 100 µM | > 100 µM | 44.2 µM |
| O=C1N[C@@H]2C(=C[C@H](O)[C@@H](O)[C@H]2O)c2cc3c(c(O)c21)OCO3 | 0.51 µM | 0.0743 µM | 8.16 µM | 0.151 µM | – | – | 0.0876 µM | 0.119 µM | 0.0639 µM | 0.294 µM | – |
| CC1CC(C#N)=C2NCCN2C1=O (centres undefined) | > 100 µM | > 100 µM | > 100 µM | > 100 µM | 50.1 µM | 31.8 µM | > 100 µM | > 100 µM | > 100 µM | – | > 100 µM |
| CCN(CCN(CC)C(=O)Nc1ccccc1)C(=O)Nc1ccccc1 | > 100 µM | > 100 µM | > 100 µM | > 100 µM | – | – | > 100 µM | > 100 µM | – | > 100 µM | > 100 µM |
| CN=C(Nc1cccc(C(F)(F)F)c1)SCc1ccc(N=C=S)cc1 | > 100 µM | 45.1 µM | 20.8 µM | 32.8 µM | 27 µM | 28 µM | 45 µM | 26.4 µM | – | 30.2 µM | 40.4 µM |
| CO/N=C1/c2sccc2[C@H](NC(=O)C(Cc2ccccc2)NC(=O)OC(C)(C)C)[C@@H]1O (some centres undefined) | > 100 µM | > 100 µM | > 100 µM | > 100 µM | > 100 µM | > 100 µM | > 100 µM | > 100 µM | > 100 µM | > 100 µM | > 100 µM |
| COc1cc(Oc2nc3ccc(C(F)(F)F)cc3nc2-c2ccccc2)cc(OC)c1OC | > 100 µM | > 100 µM | > 100 µM | > 100 µM | > 100 µM | > 100 µM | > 100 µM | > 100 µM | 97.1 µM | > 100 µM | > 100 µM |
| O=NN(CCF)C(=O)NC1CCSCC1 | > 100 µM | – | > 100 µM | > 100 µM | – | – | – | > 100 µM | > 100 µM | > 100 µM | – |
| Nc1ncnc2c1ncn2[C@@H]1O[C@H](COC(c2ccccc2)(c2ccccc2)c2ccccc2)[C@@H](OC(=S)Oc2ccccc2)[C@@H]1F | 8.55 µM | 26.6 µM | 12.5 µM | 10.8 µM | 19.1 µM | – | 31.8 µM | 46.3 µM | 18.4 µM | 37 µM | 8.24 µM |
| C=C(C)[C@@H]1CC[C@]2(C(=O)OC)CC[C@]3(C)[C@H](CC[C@@H]4[C@@]5(C)CC[C@H](O)C(C)(C)[C@@H]5CC[C@]43C)[C@@H]12 | 48.9 µM | 45.1 µM | 50.6 µM | 42.2 µM | 42.5 µM | 42.7 µM | 44.4 µM | 38.4 µM | 40.1 µM | 55.4 µM | > 100 µM |
| O=C(O)c1ccccc1N=Nc1c(O)c(S(=O)(=O)O)cc2cc(S(=O)(=O)O)ccc12 | > 100 µM | > 100 µM | > 100 µM | > 100 µM | > 100 µM | > 100 µM | – | > 100 µM | > 100 µM | > 100 µM | > 100 µM |
| O=c1[nH]c2nc3ccccc3c(=O)n2/c1=C/c1ccco1 | > 100 µM | > 100 µM | > 100 µM | > 100 µM | > 100 µM | > 100 µM | > 100 µM | – | > 100 µM | > 100 µM | > 100 µM |
| CC[C@@]1(O)C(=O)OCc2c1cc1n(c2=O)Cc2c-1nc1ccccc1c2/C=N\NC(=O)C(N)CCSC (some centres undefined) | > 100 µM | > 100 µM | > 90.3 µM | 5.63 µM | 3.58 µM | > 100 µM | 1.11 µM | 0.624 µM | 3.08 µM | > 23.7 µM | < 0.0397 µM |
| Cn1c(=O)n2n(c1=O)C(C)(C13CC4CC(CC(C4)C1)C3)C13CC4CC(CC1C4)CC23 (centres undefined) | > 100 µM | > 100 µM | > 100 µM | > 100 µM | > 100 µM | > 100 µM | > 100 µM | > 100 µM | > 100 µM | > 100 µM | > 100 µM |
| O=C1Cc2c([nH]c3ccc(C(=O)O)cc23)-c2ccccc2N1 | > 100 µM | – | > 100 µM | > 100 µM | > 100 µM | > 100 µM | > 100 µM | > 100 µM | > 100 µM | > 100 µM | > 100 µM |
| O=C(c1ccco1)N(C(=O)N1CCN(c2ccccc2)CC1)S(=O)(=O)c1ccccc1 | 87.6 µM | 60.2 µM | > 100 µM | – | 56.3 µM | 49.6 µM | > 100 µM | > 100 µM | > 100 µM | > 100 µM | 51.4 µM |
